Assay results taken from paper PMC10518421, “Zebrafish as model system for the biological characterization of CK1 inhibitors” (Frontiers in Pharmacology, 2023).
“Also recorded” adds a separate entry of the source. Like-named read-outs stand apart in the source and are kept apart here.

Legend:
zebrafish embryos = settings: for phenotype of treated zebrafish embryos: 24 to 72 hpf (48 h); for dose dependence of phenotype: 5, 10, 20 and 40 µM, 48 h of incubation
Method: The TüAB wildtype strain was used for all experiments. […] Zebrafish embryos were dechorionated at 24 h post fertilization (hpf) and treated with the respective concentration of inhibitor, dissolved in DMSO (Sigma-Aldrich, Stadt, Land) and diluted in E3 medium (5 mM NaCl, 0.17 mM KCl, 0.33 mM CaCl2, 0.33 mM MgSO4, 0.6 µM Methylene Blue dissolved in water). DMSO served as solvent control. Embryos were treated from 24 hpf until 72 hpf, the compound solution was renewed daily. Pictures and movies were recorded at 48 and 72 hpf. […] Pictures were taken on an Olympus stereo microscope SZX16 and movies were recorded on an inverse Leica stereo microscope DM IL LED Fluo equipped with a FLEXACAM C1.
Embryos were dechorionated at 24 hpf and treated with 20 µM of the respective inhibitor (Figure 6A).

CK1δ = settings: prior to standardization, ref García-Reyes et al., 2018; cited from earlier work
His-DrCK1ε = experiment: in vitro kinase assay, α-casein phosphorylation with [γ-32P]-ATP, standard conditions; format: biochemical, zebrafish (Danio rerio); settings: 20 µM inhibitor, normalized to DMSO control
Method: (§1) Each in vitro kinase reaction was performed in a total volume of 15 µL containing 25 mM Tris-HCl (pH 7.0), 10 mM MgCl2, 100 µM EDTA, 2.8 µM of the substrate α-casein and 0.4 pmol [γ-^32P]-ATP at 30°C. […] Reactions were stopped by adding 3 µL of 5x SDS loading buffer and incubating at 95°C for 5 min. Proteins were separated by SDS-PAGE and stained with Coomassie Brilliant Blue R250 (Waldeck GmbH & Co. KG, Muenster, Germany). Autoradiography visualized the incorporation of radioactively labelled γ-phosphate into the proteins. A quantitative analysis of the radioactive signal was performed by excising the proteins from dried gels and measuring phosphate incorporation via Cherenkov counting (Beckmann Scintillation Counter). For the determination of the initial velocity region, a linear regression was performed. Thereby, the number of included data-points was decreased stepwise, and the point of time with the highest maximum coefficient of determination (R ^2) was chosen as the kinase-specific standard reaction time. For determination of the maximal velocity (Vmax) and Michaelis constant (Km) of ATP, various ATP concentrations in a range from 0.5 to 250 µM were tested. Raw data was used for the calculation of enzyme velocity (V) in [pmol/min]. Then, V was plotted over substrate (ATP) concentration and fitted to the Michaelis-Menten model via GraphPad Prism 8 (GraphPad Software, La Jolla, CA, United States). According to the Michaelis-Menten curve, Km, which is the concentration of the substrate, that is needed to obtain half Vmax, was calculated. For determination of IC50 values, the scintillation data measured in cpm was transformed to pmol of transferred phosphate. The data was then transformed logarithmically (X = log(X)), normalized to DMSO (100%) and zero (0%) before fitting to sigmoidal dose-response curves with variable slope with nonlinear regression using GraphPad Prism 7.
(§2) In compliance with the established standard conditions the kinase assays were performed in the presence of 20 µM of the respective inhibitor (Figure 7).

His-DrCK1δB = biological target: T1, His-DrCK1δB (Danio rerio, UniProt Q6P3K7); experiment: as above; format: biochemical, zebrafish (Danio rerio); settings: 20 µM inhibitor, normalized to DMSO control
T1 construct: made in house; host or cells: E. coli Rosetta 2 (DE3)
T1 sequence (Q6P3K7 1-409): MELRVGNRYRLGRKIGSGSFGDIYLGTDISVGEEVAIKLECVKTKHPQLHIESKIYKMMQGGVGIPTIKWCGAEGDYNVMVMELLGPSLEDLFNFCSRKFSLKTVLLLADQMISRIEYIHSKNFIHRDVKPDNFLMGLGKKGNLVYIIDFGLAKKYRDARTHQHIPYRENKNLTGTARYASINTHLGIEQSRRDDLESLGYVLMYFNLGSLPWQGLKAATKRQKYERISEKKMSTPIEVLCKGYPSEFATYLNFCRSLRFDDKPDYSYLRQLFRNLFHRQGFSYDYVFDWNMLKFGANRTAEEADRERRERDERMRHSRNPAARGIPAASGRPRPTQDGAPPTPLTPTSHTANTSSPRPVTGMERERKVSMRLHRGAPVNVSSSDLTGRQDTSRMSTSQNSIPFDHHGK
Method: as §1, §2
(§3) Next, in vitro kinase assays were performed in absence and presence of the respective SMI at different concentrations (ranging from 13 to 26667 nM). The kinase activity of the inhibitor-treated samples was normalized to the DMSO-control and plotted against the inhibitor concentration (Figure 10).

His-DrCK1δA = biological target: T2, His-DrCK1δA (Danio rerio, UniProt Q7T2E3); experiment: as above; format: biochemical, zebrafish (Danio rerio); settings: 20 µM inhibitor, normalized to DMSO control
T2 construct: made in house; host or cells: E. coli Rosetta 2 (DE3)
T2 sequence (Q7T2E3 1-403): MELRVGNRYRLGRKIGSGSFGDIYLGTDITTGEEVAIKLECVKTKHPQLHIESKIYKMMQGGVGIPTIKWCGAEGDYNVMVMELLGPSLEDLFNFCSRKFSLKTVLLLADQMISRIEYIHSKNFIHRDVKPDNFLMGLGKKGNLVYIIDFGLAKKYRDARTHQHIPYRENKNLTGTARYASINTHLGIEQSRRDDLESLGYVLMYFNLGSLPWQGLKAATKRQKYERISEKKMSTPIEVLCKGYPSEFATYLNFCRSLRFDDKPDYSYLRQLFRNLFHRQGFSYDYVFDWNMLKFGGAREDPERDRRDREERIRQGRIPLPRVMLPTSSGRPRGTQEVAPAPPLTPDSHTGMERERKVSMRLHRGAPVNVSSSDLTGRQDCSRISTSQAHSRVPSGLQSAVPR
Method: as §1, §2, §3

CK1δ (TV1) = CK1δ (TV1) (Homo sapiens, UniProt P48730); experiment: initial IC50 determination in in vitro kinase assays, prior to standardization; format: biochemical; settings: not published
Method: The SMIs used in this study (summarized in Supplementary Table S2) were selected based on their inhibitory capacity toward CK1δ in vitro, whereby a broad range of inhibitors with varying efficiency were included. The determination of IC50-values was conducted prior to the standardization workflow establishment. Zebrafish embryos treated with 20 µM of the respective compound were phenotypically analyzed.
Supplementary Table 6: List of the inhibitors that were selected for the in vivo screening of zebrafish embryonic development. The compounds were selected based on their ability to inhibit CK1δ in in vitro kinase assays. The initial IC50-values were determined prior to the establishment of the standardized in vitro kinase assay protocol. The Supplementary Table summarizes, whether the zebrafish embryos presented an abnormal phenotype upon inhibitor treatment. The inhibitors were added to the zebrafish medium in a concentration of 20 µM.

GST-humCK1δ^TV1 = biological target: T3, GST-humCK1δ^TV1 (Homo sapiens, UniProt P48730); experiment: in vitro kinase assay, α-casein phosphorylation with [γ-32P]-ATP, standard conditions; format: biochemical; settings: 20 µM inhibitor, normalized to DMSO control
T3 construct: made in house; host or cells: E. coli Rosetta 2 (DE3)
Method: as §1, §2, §3

GST-CK1ε = biological target: T4, GST-CK1ε (Homo sapiens, UniProt P49674); experiment: as above; format: biochemical; settings: 20 µM inhibitor, normalized to DMSO control
T4 construct: made in house; host or cells: E. coli Rosetta 2 (DE3)
Method: as §1, §2

csnk1db (CK1δB) = experiment: morpholino knockdown in zebrafish embryos, phenotype; format: in vivo, zebrafish (D. rerio); settings: 300 µM injected, 72 hpf
Text: The TüAB wildtype strain was used for all experiments. […] DMSO served as solvent control. […] Embryos were immobilized in 2.5% methylcellulose.

Sequence of CK1δ (TV1) (P48730 whole entry): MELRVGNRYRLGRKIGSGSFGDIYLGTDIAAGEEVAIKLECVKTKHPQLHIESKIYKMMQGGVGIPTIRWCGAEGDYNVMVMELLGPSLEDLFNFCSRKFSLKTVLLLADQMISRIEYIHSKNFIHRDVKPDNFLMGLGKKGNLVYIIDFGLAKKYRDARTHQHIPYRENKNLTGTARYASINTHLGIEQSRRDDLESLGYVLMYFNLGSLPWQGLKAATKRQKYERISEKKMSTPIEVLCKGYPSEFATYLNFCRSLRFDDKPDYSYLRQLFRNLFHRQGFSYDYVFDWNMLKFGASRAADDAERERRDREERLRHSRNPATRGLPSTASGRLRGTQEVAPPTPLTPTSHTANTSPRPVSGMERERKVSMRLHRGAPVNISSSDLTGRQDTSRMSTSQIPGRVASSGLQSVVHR
T4 sequence (P49674 whole entry): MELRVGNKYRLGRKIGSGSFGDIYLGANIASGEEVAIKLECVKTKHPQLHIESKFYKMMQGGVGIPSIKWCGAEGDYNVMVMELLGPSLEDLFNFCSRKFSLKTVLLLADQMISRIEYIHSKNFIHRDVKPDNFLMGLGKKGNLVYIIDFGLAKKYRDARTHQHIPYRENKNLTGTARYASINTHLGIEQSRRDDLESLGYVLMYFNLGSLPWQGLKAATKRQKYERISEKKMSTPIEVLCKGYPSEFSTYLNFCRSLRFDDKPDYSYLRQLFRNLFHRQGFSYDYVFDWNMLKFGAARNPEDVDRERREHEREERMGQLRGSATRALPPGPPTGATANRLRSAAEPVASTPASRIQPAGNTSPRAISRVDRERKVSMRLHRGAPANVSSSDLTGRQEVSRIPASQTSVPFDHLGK
T3 sequence (P48730 whole entry): as the sequence (P48730 whole entry) above

| Molecule | Phenotypic changes (zebrafish embryos; zebrafish, in vivo) | Phenotypic changes (with severity) after treatment of zebrafish embryos with 20 µM inhibitor (zebrafish embryos; zebrafish, in vivo) | IC50 (CK1δ) | phenotype of treated zebrafish embryos (zebrafish embryos; 5 µM) | phenotype of treated zebrafish embryos (zebrafish embryos; 10 µM) | Phenotypic changes (with severity) after treatment of zebrafish embryos with 20 µM inhibitor (zebrafish embryos; 20 µM in medium, from 24 hpf) | phenotype of treated zebrafish embryos (zebrafish embryos; 20 µM) | phenotype of treated zebrafish embryos (zebrafish embryos; 40 µM) | dose dependence of phenotype (zebrafish embryos) | mean residual kinase activity ± SD (His-DrCK1ε) | mean residual kinase activity ± SD (His-DrCK1δB) | mean residual kinase activity ± SD (His-DrCK1δA) | IC50 (CK1δ (TV1)) | mean residual kinase activity ± SD (GST-humCK1δ^TV1) | mean residual kinase activity ± SD (GST-CK1ε) | also measured |
| --- | --- | --- | --- | --- | --- | --- | --- | --- | --- | --- | --- | --- | --- | --- | --- | --- |
| O=C(CSc1nc2c(c(=O)n1-c1ccccc1)SCC2)Nc1nc2ccc(C(F)(F)F)cc2s1 [G1-1] | Mild bradycardia | Yes (mild) | 0.66 µM |  |  |  |  |  |  |  |  |  |  |  |  |  |
| O=C(CSc1nc2c(c(=O)n1Cc1ccc(C(F)(F)F)cc1)SCC2)Nc1nc2ccc(C(F)(F)F)cc2s1 [G1-3] | None observed | No | 0.33 µM |  |  |  |  |  |  |  |  |  |  |  |  |  |
| COc1ccccc1-n1c(SCC(=O)Nc2nc3ccc(C(F)(F)F)cc3s2)nccc1=O [G2-4, 2-((3-(2-Methoxyphenyl)-4-oxo-3,4-dihydropyrimidin-2-yl)thio)-N-(6-(trifluormethyl)benzo[d]thiazol-2-yl)acetamid] |  |  |  | mild phenotype with a minor blood congestion | weakly beating ventricle and a pericardial edema | Yes (severe) | strong cardiac phenotype, with blood congestion, a strong bradycardia and partially total loss of heart beat; also recorded: severe effects on the embryonic development, with strong bradycardia and blood congestion; also recorded: pericardial edema; also recorded: almost not beating | bradycardia, a loss of ventricular beating and as a result pericardial edema | increasingly severe cardiac malfunctions with increasing compound concentrations | 11.3 ± 3.3% | 6.3 ± 0.8% | 7.6 ± 1.2% | 0.97 µM | 3.2 ± 0.3% | 8.6 ± 1.6% |  |
| COc1ccc(-n2c(SCC(=O)Nc3nc4ccc(C(F)(F)F)cc4s3)nccc2=O)cc1 [G2-5, 2-((3-(4-Methoxyphenyl)-4-oxo-3,4-dihydropyrimidin-2-yl)thio)-N-(6-(trifluormethyl)benzo[d]thiazol-2-yl)acetamid] |  |  |  |  |  | No | no effect on zebrafish development or heart function; also recorded: did not show a phenotypic effect |  |  |  |  |  | 0.84 µM |  |  |  |
| COc1cccc(-n2c(SCC(=O)Nc3nc4ccc(C(F)(F)F)cc4s3)nccc2=O)c1 [G2-6, 2-((3-(3-Methoxyphenyl)-4-oxo-3,4-dihydropyrimidin-2-yl)thio)-N-(6-(trifluormethyl)benzo[d]thiazol-2-yl)acetamid] |  |  |  | cardiac phenotype, with bradycardia and blood congestion, resulting in cardiac edema | blood congestion and pericardial edema | Yes (severe) | strong cardiac phenotype, with blood congestion, a strong bradycardia and partially total loss of heart beat; also recorded: severe effects on the embryonic development, with strong bradycardia and blood congestion; also recorded: blood congestions; also recorded: pericardial edema | bradycardia, a loss of ventricular beating and as a result pericardial edema | increasingly severe cardiac malfunctions with increasing compound concentrations | 25.5 ± 10.7% | 10.0 ± 1.3% | 11.9 ± 3.2% | 1.4 µM | 9.1 ± 1.6% | 18.0 ± 4.8% |  |
| csnk1db morpholino: morpholino-modified antisense oligonucleotide targeting the translational start site of csnk1db, 5′-CTGTTTCCAACTCGTAGCTCCATTG-3′ (all phosphorodiamidate morpholino (PMO)) |  |  |  |  |  |  |  |  |  |  |  |  |  |  |  | phenotype of morpholino injected embryos (csnk1db (CK1δB)): reduced heart function resulting in blood congestion; phenotype of morpholino injected embryos (csnk1db (CK1δB); listed as csnk1db): cardiac malfunction; also recorded: slightly curved body axis; phenotype of morpholino injected embryos (csnk1db (CK1δB); listed as csnk1db Morpholino): reduced heart function |
